One test has as its target T1, SSTR2 (Rattus norvegicus, UniProt P30680).
T1 construct: expressed in transfected cells
Kind of test: Competitive binding of 125I labeled S-14 to membranes of cells expressing SSTR2. Particulars: 125I labeled S-14, membranes. The procedure:
Membrane preparation. Tissue culture cell lines expressing transfected CDNA clones of SSTR2, and SSTR5 are used as a source of plasma membranes which specifically bind ^125 I labeled S-14 (Amersham, Arlington Heights, Ill.). Cells are removed from culture dishes by incubation at 4° C. for 5 minutes in PBS containing 1 mM EDTA, spun down (2,000 rpm, 5') and resuspended in 15 mL homogenization buffer (1 mM sodium bicarbonate pH 7.2, 1 mM EDTA, 1 mM EGTA and the following protease inhibitors: leupeptin and aprotenin at 5 μg/mL and benzamidine and bacitracin at 100 μg/mL). Cells are given 20 strokes with a Dounce homogenizer on ice and spun at 2000 rpm for 10 minutes. Membranes are isolated from the supernatant by centrifugation at 17,000 rpm for 30 minutes. The membrane pellet is washed once in 15 mL homogenization buffer and once in storage buffer (25 mM Tris pH 7.4 containing protease inhibitors). Each wash is followed by centrifugation at 17,000 rpm for 30 minutes. The membrane pellet is resuspended in storage buffer, measured for protein concentration (BioRad, Calif.) and stored at -80° C.
Binding assay. All reagents for the binding assay are prepared in binding buffer (50 mM Hepes pH 7.4, 2 mM EGTA, 5 mM MgCl2 and protease inhibitors). Membranes are thawed on ice and diluted to […] protein/50 μL binding buffer. ^125 I labeled S-14 (Amersham, Arlington Heights, Ill.) is diluted to 80-100,000 cpm/50 μL in binding buffer. Competitors, either test peptides or standards, are prepared at 4× final concentrations in binding buffer, as are wheat germ agglutinin (WGA)-linked PVC beads that contain solid scintillant (SPA beads, Amersham, Arlington Heights, Ill.). The binding assay is initiated by mixing 50 μL each of membranes, radiolabelled S-14, competitors and SPA beads in each well of a 96-well tray. The assay is incubated by shaking for 10-30 minutes at room temperature and then placing at 4° C. overnight. Bound radioligand is determined by counting in a Microbeta Liquid Scintillation counter (Wallac, Gaithersburg, Md.). Binding data is plotted and IC50 and Ki values are calculated for test compounds using Prism software (Graphpad Software Inc., San Diego, Calif.) and are shown in Table V. Binding is expressed as Ki, μM.

Test [1] has as its target T2, S. cerevisiae (yeast) cells expressing SRIF receptors (Rattus norvegicus, UniProt P30680).
T2 construct: expressed in transfected cells; host or cells: S. cerevisiae strain LY364
Description: Yeast bioassay for SRIF antagonist activity (LY364 cells growing in response to SRIF, zone of growth inhibition). The test is classed as cell-based. Particulars: Sample type 4th iteration; 10 μL of 5 mg/mL on disk, SRIF 10 nM, read after 3 days. The text has this:
SRIF antagonist assay using S. cerevisiae (yeast) cells expressing SRIF receptors that grow in response to SRIF
Agar plates containing LY364 cells that are growing in the presence of added SRIF are the basis for a sensitive SRIF antagonist assay, whereby zones of growth inhibition result from the addition of SRIF antagonists to the surface of the agar plate (see L. A. Price, et al., Molecular and Cellular Biology, 15, 6188-6195, 1995, incorporated herein by reference).
In this assay, LY364 cells are grown overnight in 2 mL of synthetic complete(SC) medium (3.4 g/L YNB without amino acids and ammonium sulfate, 10 g/L ammonium sulfate and 1.4 g/L CSM-ura-trp) with glucose (2%) and without uracil and tryptophan. These cells are washed and cultured for 4 to 8 hours in 5 mL of SC medium with lactate (3%) and without uracil and tryptophan, and finally grown overnight in 5 mL of SC medium with galactose (2%) and without uracil and tryptophan. Molten (50° C.) SC agar medium with galactose (2%) and without uracil, tryptophan and histidine is adjusted to pH 6.8 with KOH, mixed with 2×10^4 cells/mL and SRIF (S-14, 10 nM) and poured into square (20×20 cm) petri dishes. Sterile filter disks are placed on the surface of the agar, and saturated with 10 μL of water or DMSO containing 5 mg/mL test peptides. After three days, the plates display a uniform cloudy background of LY264 cells growing in response to the added SRIF. […] This zone is quantified by measuring its diameter (mm), which varies according to the potency of the SRIF antagonist. Those peptides or mixtures of peptides displaying the largest zones of inhibition are further characterized.
Values are compared among samples in the same experiment, as the degree of yeast growth varies somewhat from assay to assay. For the first five sample types, in which progressively less complex mixtures of peptides are found, this assay is the primary determining factor in choosing which samples form the basis of subsequent syntheses.
Plates are read after 3 days. Samples shown in Table I in bold type are chosen for further synthesis. In Table I, all amino acids are D-amino acids and dashes represent undefined amino acid residues.

The next test has as its system Male Sprague-Dawley rats. Description: Serum growth hormone levels in anaesthetized rats given GRF with and without peptide 1. The test is classed as in vivo, rat. The procedure:
Evaluation in anaesthetized rats. Male Sprague-Dawley rats are anaesthetized with Sagatal and fitted so as to allow efficient intravenous treatment with control and test compounds as well as frequent blood sampling. Blood samples are tested for growth hormone (GH) levels by radioimmunoassay. Thirty minutes after the initiation of blood sampling, rats are given 5 μg, 25 μg or 50 μg of peptide 1.
Peptide 1 is tested in combination with growth hormone releasing factor (GRF), to investigate whether said peptide may be mimicking the action of GRF. Anaesthetized rats are given GRF (1 μg) alone and in combination with peptide 1 (50 μg).

Square brackets hold non-standard residues; d marks the D form. Peptide text beside a SMILES is read from it.

T1 sequence (P30680 whole entry): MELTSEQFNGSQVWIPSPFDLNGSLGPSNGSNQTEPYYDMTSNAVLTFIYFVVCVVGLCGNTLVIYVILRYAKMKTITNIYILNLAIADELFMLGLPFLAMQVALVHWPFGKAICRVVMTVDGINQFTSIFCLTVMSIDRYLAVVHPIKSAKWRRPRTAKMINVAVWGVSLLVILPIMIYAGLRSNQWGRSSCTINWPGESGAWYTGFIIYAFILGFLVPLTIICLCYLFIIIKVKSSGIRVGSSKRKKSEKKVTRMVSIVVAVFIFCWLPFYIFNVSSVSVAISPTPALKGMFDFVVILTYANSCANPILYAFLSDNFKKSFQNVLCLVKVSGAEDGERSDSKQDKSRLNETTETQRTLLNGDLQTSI
T2 sequence (P30680 whole entry): as above

The term Ki denotes the equilibrium dissociation constant of an inhibitor or competing ligand from its target. Take `CC[C@@H](C)[C@H]1NC(=O)[C@@H](Cc2ccccc2)NC(=O)[C@@H](Cc2c[nH]cn2)NC(=O)[C@@H](Cc2ccccc2)NC(=O)[C@@H](Cc2c[nH]c3ccccc23)NC(=O)[C@@H](CCCNC(=N)N)NC1=O` [#STR6##] (cyclo([dH][dF][dI][dR][dW][dF])): at SSTR2, the inhibition constant (Ki) was found to be 140 nM.

`CC[C@@H](C)[C@@H](NC(=O)[C@@H](Cc1ccccc1)NC(=O)[C@@H](Cc1c[nH]cn1)NC(C)=O)C(=O)N[C@H](CCCNC(=N)N)C(=O)N[C@H](Cc1c[nH]c2ccccc12)C(=O)N[C@H](CC(C)C)C(N)=O` [His Phe Ile Arg Trp Leu] (Ac-[dH][dF][dI][dR][dW][dL]-NH2): in test [1], the “Inhibition Zone” value came to 15 mm.

Take `CC[C@@H](C)[C@@H](NC(=O)[C@@H](Cc1ccccc1)NC(=O)[C@@H](Cc1c[nH]cn1)NC(C)=O)C(=O)N[C@H](CCCNC(=N)N)C(=O)N[C@H](Cc1c[nH]c2ccccc12)C(=O)N[C@H](CCSC)C(N)=O` [His Phe Ile Arg Trp Met] (Ac-[dH][dF][dI][dR][dW][dM]-NH2): the “Inhibition Zone” value in test [1] worked out at 18 mm.

For `CC[C@@H](C)[C@@H](NC(=O)[C@@H](Cc1ccccc1)NC(=O)[C@@H](Cc1c[nH]cn1)NC(C)=O)C(=O)N[C@H](CCCNC(=N)N)C(=O)N[C@H](Cc1c[nH]c2ccccc12)C(=O)N[C@@H](C(N)=O)[C@H](C)O` [His Phe Ile Arg Trp Thr] (Ac-[dH][dF][dI][dR][dW][dT]-NH2), in test [1], the “Inhibition Zone” value is on record as 14 mm. `CC[C@@H](C)[C@@H](NC(=O)[C@@H](Cc1ccccc1)NC(=O)[C@@H](Cc1c[nH]cn1)NC(C)=O)C(=O)N[C@H](CCCNC(=N)N)C(=O)N[C@H](Cc1c[nH]c2ccccc12)C(=O)N[C@H](Cc1c[nH]c2ccccc12)C(N)=O` [His Phe Ile Arg Trp Trp] (Ac-[dH][dF][dI][dR][dW][dW]-NH2): the “Inhibition Zone” value in test [1] was 16 mm. On to `CC[C@@H](C)[C@@H](NC(=O)[C@@H](Cc1ccccc1)NC(=O)[C@@H](Cc1c[nH]cn1)NC(C)=O)C(=O)N[C@H](CCCNC(=N)N)C(=O)N[C@H](Cc1c[nH]c2ccccc12)C(=O)N[C@H](Cc1ccc(O)cc1)C(N)=O` [His Phe Ile Arg Trp Tyr] (Ac-[dH][dF][dI][dR][dW][dY]-NH2), for which the “Inhibition Zone” value in test [1] turned out to be 16 mm.

As for `CC[C@@H](C)[C@@H](NC(=O)[C@@H](Cc1c[nH]c2ccccc12)NC(=O)[C@@H](Cc1c[nH]cn1)NC(C)=O)C(=O)N[C@H](CCCNC(=N)N)C(=O)N[C@H](Cc1ccccc1)C(=O)N[C@H](Cc1ccccc1)C(N)=O` [Peptide 29, h-w-i-r-f-f] (Ac-[dH][dW][dI][dR][dF][dF]-NH2), the Ki on SSTR2 is 970 nM. Same read-out and setting: in the case of `CC[C@@H](C)[C@@H](NC(=O)[C@@H](CCCNC(=N)N)NC(=O)[C@@H](Cc1c[nH]c2ccccc12)NC(=O)[C@@H](Cc1ccccc1)NC(=O)[C@@H](Cc1c[nH]cn1)NC(C)=O)C(=O)N[C@H](Cc1ccccc1)C(N)=O` [Peptide 30, h-f-w-r-i-f] (Ac-[dH][dF][dW][dR][dI][dF]-NH2) it was 2800 nM; in that of `CC[C@@H](C)[C@@H](NC(=O)[C@@H](CCCNC(=N)N)NC(=O)[C@@H](Cc1ccccc1)NC(=O)[C@@H](Cc1c[nH]cn1)NC(C)=O)C(=O)N[C@H](Cc1c[nH]c2ccccc12)C(=O)N[C@H](Cc1ccccc1)C(N)=O` [Peptide 31, h-f-r-i-w-f] (Ac-[dH][dF][dR][dI][dW][dF]-NH2), 2500 nM. On to `CC[C@@H](C)[C@@H](NC(=O)[C@@H](Cc1ccccc1)NC(=O)[C@@H](Cc1c[nH]cn1)NC(=O)[C@@H](Cc1ccccc1)NC(=O)[C@@H](Cc1c[nH]c2ccccc12)NC(C)=O)C(=O)N[C@H](CCCNC(=N)N)C(N)=O` [Peptide 32, w-f-h-f-i-r] (Ac-[dW][dF][dH][dF][dI][dR]-NH2), for which, at SSTR2, the Ki was determined as 37200 nM. The same measure, in the same setting: in the case of `CC[C@@H](C)[C@@H](NC(C)=O)C(=O)N[C@H](CCCNC(=N)N)C(=O)N[C@H](Cc1c[nH]c2ccccc12)C(=O)N[C@H](Cc1ccccc1)C(=O)N[C@H](Cc1c[nH]cn1)C(=O)N[C@H](Cc1ccccc1)C(N)=O` [Peptide 33, i-r-w-f-h-f] (Ac-[dI][dR][dW][dF][dH][dF]-NH2) it was 2800 nM. With growth hormone releasing factor [GRF], the SGH is 67.1 ng/mL in the test with Male Sprague-Dawley rats (GRF 1 μg alone or with peptide 1 50 μg at 30 min, sample 35 min); 103.5 ng/mL in the test on Male Sprague-Dawley rats (GRF 1 μg alone or with peptide 1 50 μg at 30 min, sample 40 min); 53.1 ng/mL with Male Sprague-Dawley rats (GRF 1 μg alone or with peptide 1 50 μg at 30 min, sample 45 min); 8.4 ng/mL in the test with Male Sprague-Dawley rats (GRF 1 μg alone or with peptide 1 50 μg, 30 min (time of dosing)).

The record behind these values is patent publication US5925618A, “Peptides useful as somatostatin antagonists” (American Cyanamid Company, priority 1998, dated 1999).
